In patent US20020137929A1, “1 - (3-heterocyclylphenyl) isothiourea, -isourea, -guanidine and -amidine herbicidal agents” (Intellectual Property Department, BASF Aktiengesellschaft, priority 1998, published 2002):

Key:
[1] = test system: IPOHE (Morningglory, Ivyleaf); assay: Preemergence herbicidal evaluation; type: in vivo, Ipomoea hederacea; settings: rated 4-5 weeks after treatment
Procedure, shortened: (§1)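 Scores use a 0–9 visual scale covering stand, vigor, malformation, size and chlorosis relative to controls, rated four to five weeks after treatment. Before emergence, soil-planted seeds were sprayed with compound in aqueous acetone at roughly 0.0156–0.500 kg/ha and held in the greenhouse.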

[2] = test system: ZEAMX (Corn, Field); assay: Postemergence herbicidal evaluation; type: in vivo, Zea mays; settings: postemergence
Procedure, shortened: (§2)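 Each compound, dispersed in an acetone/water mix (50/50) carrying 0.5% TWEEN 20, is nozzle-sprayed at 40 psi on approximately two-week-old seedlings at about 0.0156–0.500 kg/ha. Plants are assessed 4–5 weeks afterward on a 0–9 scale relative to control; duplicate tests are averaged.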

[3] = test system: CASOB (Sicklepod); assay: Preemergence herbicidal evaluation; type: in vivo, Cassia obtusifolia; settings: rated 4-5 weeks after treatment
Procedure, shortened: as §1

[4] = test system: SETVI (Foxtail, Green); assay: Postemergence herbicidal evaluation; type: in vivo, Setaria viridis; settings: postemergence
Procedure, shortened: as §2

[5] = test system: ECHORC (Watergrass (Calif.)); assay: Postemergence weed control under flooded paddy conditions; type: in vivo, Echinochloa oryzoides; settings: postemergence weeds, rated 3 to 4 weeks after treatment
Procedure, shortened: (§3)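 Injury ratings (0–9 scale covering stand, vigor, malformation, size, chlorosis and overall appearance versus control) were made three to four weeks after treatment. Test material, about 0.0313 to 0.500 kg/ha a.i. in 50/50 v/v aqueous/acetone, was added to flood water 1.5 to 3 cm deep over 3 to 5 cm weeds and 1.5 to 2.5 leaf rice.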

[6] = test system: CYPIR (Rice Flatsedge); assay: as above; type: in vivo, Cyperus iria; settings: postemergence weeds, rated 3 to 4 weeks after treatment
Procedure, shortened: as §3

[7] = test system: ECHCG (Barnyardgrass); assay: Preemergence herbicidal evaluation; type: in vivo, Echinochloa crus-galli; settings: rated 4-5 weeks after treatment
Procedure, shortened: as §1

[8] = test system: GLXMAW (Soybean, Williams); assay: Postemergence herbicidal evaluation; type: in vivo, Glycine max, (L.) Merr. cv Williams; settings: postemergence
Procedure, shortened: as §2

[9] = test system: ABUTH (Velvetleaf); assay: Postemergence herbicidal evaluation; type: in vivo, Abutilon theophrasti; settings: postemergence
Procedure, shortened: as §2

[10] = test system: IPOHE (Morningglory, Ivyleaf); assay: Postemergence herbicidal evaluation; type: in vivo, Ipomoea hederacea; settings: postemergence
Procedure, shortened: as §2

[11] = test system: ABUTH (Velvetleaf); assay: Preemergence herbicidal evaluation; type: in vivo, Abutilon theophrasti; settings: rated 4-5 weeks after treatment
Procedure, shortened: as §1

[12] = test system: ECHORC (Watergrass (Calif.)); assay: Preemergence weed control under flooded paddy conditions; type: in vivo, Echinochloa oryzoides; settings: rated 3-4 weeks after treatment
Procedure, shortened: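 Visual injury scored 0-9 against control three to four weeks post-treatment, greenhouse-grown. Application: acetone/water (50/50) solutions dosed directly into flood water (1.5-3 cm over silt loam, planted top 0.5 cm), roughly 0.0313 to 0.500 kg/ha active ingredient.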

[13] = test system: AMBEL (Ragweed, Common); assay: Preemergence herbicidal evaluation; type: in vivo, Ambrosia artemisifolia; settings: rated 4-5 weeks after treatment
Procedure, shortened: as §1

[14] = test system: CYPSE (Flatsedge); assay: Preemergence weed control under flooded paddy conditions; type: in vivo, Cyperus serotinus; settings: rated 3-4 weeks after treatment
Procedure, shortened: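 Values are visual 0-9 scores against a control for a preemergence application into paddy flood water at about 0.0313 to 0.500 kg/ha. Greenhouse duration was three to four weeks.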

CCOC(=O)C(c1ccc(Cl)cc1)N1C(=O)CSC1=Nc1cc(-n2c(=O)cc(C(F)(F)F)n(C)c2=O)c(F)cc1Cl (racemic) [Compound 79, Ethyl α-(p-chlorophenyl)-2-{{2-chloro-5-[3,6-dihydro-3-methyl-2,6-dioxo-4-(trifluoromethyl)-1(2H)-pyrimidinyl]-4-fluorophenyl}imino}-4-oxo-3-thiazolidineacetate, DL-]
0.0: Preemergence herbicidal rating IPOHE ([1]; rate 0.0313 kg/ha) | Preemergence herbicidal rating IPOHE ([1]; rate 0.0625 kg/ha) | Preemergence herbicidal rating IPOHE ([1]; rate 0.1250 kg/ha) | Preemergence herbicidal rating CASOB ([3]; rate 0.0625 kg/ha) | Preemergence herbicidal rating CASOB ([3]; rate 0.1250 kg/ha) | Herbicidal rating CYPIR ([6]; Rate 0.0313 kg/ha) | Herbicidal rating CYPIR ([6]; Rate 0.0625 kg/ha) | Preemergence herbicidal rating ECHCG ([7]; rate 0.0313 kg/ha) | Preemergence herbicidal rating ECHCG ([7]; rate 0.0625 kg/ha) | Preemergence herbicidal rating ECHCG ([7]; rate 0.1250 kg/ha) | Preemergence herbicidal rating ECHCG ([7]; rate 0.2500 kg/ha) | Preemergence herbicidal rating ABUTH ([11]; rate 0.0313 kg/ha) | CYPSE herbicidal effect rating ([14]; 0.0313 kg/ha) | CYPSE herbicidal effect rating ([14]; 0.0625 kg/ha) | CYPSE herbicidal effect rating ([14]; 0.1250 kg/ha)
3.0: Preemergence herbicidal rating AMBEL ([13]; rate 0.0625 kg/ha)
1.0: Preemergence herbicidal rating IPOHE ([1]; rate 0.2500 kg/ha) | Preemergence herbicidal rating CASOB ([3]; rate 0.0313 kg/ha) | Preemergence herbicidal rating CASOB ([3]; rate 0.2500 kg/ha) | SETVI herbicidal rating ([4]; rate 0.0315 kg/ha) | SETVI herbicidal rating ([4]; rate 0.0630 kg/ha) | Preemergence herbicidal rating AMBEL ([13]; rate 0.0313 kg/ha) | Preemergence herbicidal rating AMBEL ([13]; rate 0.1250 kg/ha)
5.0: ZEAMX herbicidal rating ([2]; rate 0.0158 kg/ha) | ZEAMX herbicidal rating ([2]; rate 0.0630 kg/ha) | Herbicidal rating ECHORC ([5]; Rate 0.0313 kg/ha) | GLXMAW herbicidal rating ([8]; rate 0.0315 kg/ha) | GLXMAW herbicidal rating ([8]; rate 0.0630 kg/ha) | ECHORC herbicidal effect rating ([12]; 0.0313 kg/ha)
2.0: Herbicidal rating CYPIR ([6]; Rate 0.1250 kg/ha) | Preemergence herbicidal rating ABUTH ([11]; rate 0.0625 kg/ha)
6.0: Herbicidal rating ECHORC ([5]; Rate 0.0625 kg/ha) | Herbicidal rating CYPIR ([6]; Rate 0.2500 kg/ha) | Preemergence herbicidal rating ABUTH ([11]; rate 0.1250 kg/ha) | ECHORC herbicidal effect rating ([12]; 0.0625 kg/ha)
8.0: Herbicidal rating ECHORC ([5]; Rate 0.2500 kg/ha) | ECHORC herbicidal effect rating ([12]; 0.2500 kg/ha) | Preemergence herbicidal rating AMBEL ([13]; rate 0.2500 kg/ha)
9.0: ABUTH herbicidal rating ([9]; rate 0.0158 kg/ha) | ABUTH herbicidal rating ([9]; rate 0.0315 kg/ha) | ABUTH herbicidal rating ([9]; rate 0.0630 kg/ha) | IPOHE herbicidal rating ([10]; rate 0.0158 kg/ha) | IPOHE herbicidal rating ([10]; rate 0.0315 kg/ha) | IPOHE herbicidal rating ([10]; rate 0.0630 kg/ha) | Preemergence herbicidal rating ABUTH ([11]; rate 0.2500 kg/ha) | CYPSE herbicidal effect rating ([14]; 0.2500 kg/ha)
4.5: ZEAMX herbicidal rating ([2]; rate 0.0315 kg/ha) | GLXMAW herbicidal rating ([8]; rate 0.0158 kg/ha)
7.0: Herbicidal rating ECHORC ([5]; Rate 0.1250 kg/ha) | ECHORC herbicidal effect rating ([12]; 0.1250 kg/ha)
4.0: SETVI herbicidal rating ([4]; rate 0.0158 kg/ha)

COC(=O)[C@H](Cc1ccc([N+](=O)[O-])cc1)N1C(=O)CSC1=Nc1cc(-n2c(=O)cc(C(F)(F)F)n(C)c2=O)c(F)cc1Cl [Compound 78, Methyl 2-{{2-chloro-5-[3,6-dihydro-3-methyl-2,6-dioxo-4-(trifluoromethyl)-1(2H)-pyrimidinyl]-4-fluorophenyl}imino}-4-oxo-α-(p-nitrobenzyl)-3-thiazolidineacetate, L-]
7.0: Herbicidal rating ECHORC ([5]; Rate 0.0313 kg/ha) | Herbicidal rating ECHORC ([5]; Rate 0.0625 kg/ha) | ABUTH herbicidal rating ([9]; rate 0.0158 kg/ha) | ECHORC herbicidal effect rating ([12]; 0.0313 kg/ha) | ECHORC herbicidal effect rating ([12]; 0.0625 kg/ha) | CYPSE herbicidal effect rating ([14]; 0.1250 kg/ha)
9.0: Herbicidal rating ECHORC ([5]; Rate 0.1250 kg/ha) | Herbicidal rating ECHORC ([5]; Rate 0.2500 kg/ha) | Herbicidal rating CYPIR ([6]; Rate 0.2500 kg/ha) | ABUTH herbicidal rating ([9]; rate 0.0315 kg/ha) | ABUTH herbicidal rating ([9]; rate 0.0630 kg/ha) | IPOHE herbicidal rating ([10]; rate 0.0158 kg/ha) | IPOHE herbicidal rating ([10]; rate 0.0315 kg/ha) | IPOHE herbicidal rating ([10]; rate 0.0630 kg/ha) | Preemergence herbicidal rating ABUTH ([11]; rate 0.2500 kg/ha) | ECHORC herbicidal effect rating ([12]; 0.1250 kg/ha) | ECHORC herbicidal effect rating ([12]; 0.2500 kg/ha) | CYPSE herbicidal effect rating ([14]; 0.2500 kg/ha)
1.0: Preemergence herbicidal rating CASOB ([3]; rate 0.2500 kg/ha) | SETVI herbicidal rating ([4]; rate 0.0158 kg/ha) | SETVI herbicidal rating ([4]; rate 0.0315 kg/ha) | SETVI herbicidal rating ([4]; rate 0.0630 kg/ha) | Preemergence herbicidal rating ECHCG ([7]; rate 0.2500 kg/ha) | Preemergence herbicidal rating AMBEL ([13]; rate 0.1250 kg/ha) | Preemergence herbicidal rating AMBEL ([13]; rate 0.2500 kg/ha)
6.0: Herbicidal rating CYPIR ([6]; Rate 0.1250 kg/ha) | CYPSE herbicidal effect rating ([14]; 0.0313 kg/ha) | CYPSE herbicidal effect rating ([14]; 0.0625 kg/ha)
3.0: Preemergence herbicidal rating IPOHE ([1]; rate 0.2500 kg/ha)
0.0: Preemergence herbicidal rating IPOHE ([1]; rate 0.0156 kg/ha) | Preemergence herbicidal rating IPOHE ([1]; rate 0.0313 kg/ha) | Preemergence herbicidal rating IPOHE ([1]; rate 0.0625 kg/ha) | Preemergence herbicidal rating IPOHE ([1]; rate 0.1250 kg/ha) | Preemergence herbicidal rating CASOB ([3]; rate 0.0313 kg/ha) | Preemergence herbicidal rating CASOB ([3]; rate 0.0625 kg/ha) | Preemergence herbicidal rating CASOB ([3]; rate 0.1250 kg/ha) | Preemergence herbicidal rating ECHCG ([7]; rate 0.0156 kg/ha) | Preemergence herbicidal rating ECHCG ([7]; rate 0.0313 kg/ha) | Preemergence herbicidal rating ECHCG ([7]; rate 0.0625 kg/ha) | Preemergence herbicidal rating ECHCG ([7]; rate 0.1250 kg/ha) | Preemergence herbicidal rating ABUTH ([11]; rate 0.0156 kg/ha) | Preemergence herbicidal rating ABUTH ([11]; rate 0.0313 kg/ha) | Preemergence herbicidal rating ABUTH ([11]; rate 0.0625 kg/ha) | Preemergence herbicidal rating AMBEL ([13]; rate 0.0156 kg/ha) | Preemergence herbicidal rating AMBEL ([13]; rate 0.0313 kg/ha) | Preemergence herbicidal rating AMBEL ([13]; rate 0.0625 kg/ha)
5.0: ZEAMX herbicidal rating ([2]; rate 0.0315 kg/ha) | ZEAMX herbicidal rating ([2]; rate 0.0630 kg/ha) | Herbicidal rating CYPIR ([6]; Rate 0.0313 kg/ha) | Herbicidal rating CYPIR ([6]; Rate 0.0625 kg/ha)
2.0: Preemergence herbicidal rating ABUTH ([11]; rate 0.1250 kg/ha)
5.5: GLXMAW herbicidal rating ([8]; rate 0.0630 kg/ha)
4.5: ZEAMX herbicidal rating ([2]; rate 0.0158 kg/ha) | GLXMAW herbicidal rating ([8]; rate 0.0315 kg/ha)
4.0: GLXMAW herbicidal rating ([8]; rate 0.0158 kg/ha)
